Each structure is given as a SMILES string.

One series deals with JAK1 kinase (Homo sapiens (Human), UniProt P23458). Briefly: Assay for inhibiting JAK1 kinase (in vitro kinase assay, HRP anti-phosphotyrosine antibody/TMB absorbance). It is filed as biochemical. The note with it: 20 μM ATP, 50 minutes at room temperature; read-out: IC50 (JAK1/Bio). How it is done:
In vitro activity of compounds of the present invention for inhibiting JAK1 kinase was determined by the following method.
IC50 values of test compounds was calculated from the data of the test compounds in inhibiting the activity of JAK1 kinase at different concentrations.

A short description of series [1]: Pharmacokinetics assay in rats, intragastric administration, plasma by LC/MS/MS. It is filed as in vivo, Sprague-Dawley (SD) rats. The note with it: both sexes, Sprague-Dawley, rat, plasma, po, SD rats, 10 mg/kg. How it is done: Rats were used as test animals. […] The pharmacokinetic behavior of the compounds of the present invention was studied and evaluated in rats.
56 Healthy adult Sprague-Dawley (SD) rats, half male and half female, purchased from SINO-BRITSH SIPPR/BK LAB.
The appropriate amount of test compounds were weighed and mixed with 1.0 mL of dimethyl sulfoxide to prepare a 1.0 mg/mL suspension.
After an overnight fast, SD rats were administered intragastrically at a dose of 10.0 mg/kg and an administration volume of 10 mL/kg.
The plasma samples were stored at −20° C. The rats were fed 2 hours after administration.
Content determination of the test compounds in rat plasma after intragastrically administering at different concentrations: 50 μL of rat plasmas taken at various time points after administration were mixed with 50 μL of internal standard solution and 100 μL of methanol and mixed for 3 minutes by a vortexer. The mixture was centrifuged for 10 minutes at 13,500 rpm. 10 μL of the supernatant was taken from the plasma sample and analyzed by LC-MS/MS.
Pharmacokinetic Parameters of the compounds of the present invention were shown as follows: […]

Another series deals with JAK2 kinase (Homo sapiens (Human), UniProt O60674). The experiment in a line: Assay for inhibiting JAK2 kinase (in vitro kinase assay, HRP anti-phosphotyrosine antibody/TMB absorbance). In kind it is biochemical. As to conditions: 20 μM ATP, 50 minutes at room temperature; read-out: IC50 (JAK2/Bio). As to the method: In vitro activity of compounds of the present invention for inhibiting JAK2 kinase was determined by the following method.
Sequence of JAK2 kinase (O60674 whole entry): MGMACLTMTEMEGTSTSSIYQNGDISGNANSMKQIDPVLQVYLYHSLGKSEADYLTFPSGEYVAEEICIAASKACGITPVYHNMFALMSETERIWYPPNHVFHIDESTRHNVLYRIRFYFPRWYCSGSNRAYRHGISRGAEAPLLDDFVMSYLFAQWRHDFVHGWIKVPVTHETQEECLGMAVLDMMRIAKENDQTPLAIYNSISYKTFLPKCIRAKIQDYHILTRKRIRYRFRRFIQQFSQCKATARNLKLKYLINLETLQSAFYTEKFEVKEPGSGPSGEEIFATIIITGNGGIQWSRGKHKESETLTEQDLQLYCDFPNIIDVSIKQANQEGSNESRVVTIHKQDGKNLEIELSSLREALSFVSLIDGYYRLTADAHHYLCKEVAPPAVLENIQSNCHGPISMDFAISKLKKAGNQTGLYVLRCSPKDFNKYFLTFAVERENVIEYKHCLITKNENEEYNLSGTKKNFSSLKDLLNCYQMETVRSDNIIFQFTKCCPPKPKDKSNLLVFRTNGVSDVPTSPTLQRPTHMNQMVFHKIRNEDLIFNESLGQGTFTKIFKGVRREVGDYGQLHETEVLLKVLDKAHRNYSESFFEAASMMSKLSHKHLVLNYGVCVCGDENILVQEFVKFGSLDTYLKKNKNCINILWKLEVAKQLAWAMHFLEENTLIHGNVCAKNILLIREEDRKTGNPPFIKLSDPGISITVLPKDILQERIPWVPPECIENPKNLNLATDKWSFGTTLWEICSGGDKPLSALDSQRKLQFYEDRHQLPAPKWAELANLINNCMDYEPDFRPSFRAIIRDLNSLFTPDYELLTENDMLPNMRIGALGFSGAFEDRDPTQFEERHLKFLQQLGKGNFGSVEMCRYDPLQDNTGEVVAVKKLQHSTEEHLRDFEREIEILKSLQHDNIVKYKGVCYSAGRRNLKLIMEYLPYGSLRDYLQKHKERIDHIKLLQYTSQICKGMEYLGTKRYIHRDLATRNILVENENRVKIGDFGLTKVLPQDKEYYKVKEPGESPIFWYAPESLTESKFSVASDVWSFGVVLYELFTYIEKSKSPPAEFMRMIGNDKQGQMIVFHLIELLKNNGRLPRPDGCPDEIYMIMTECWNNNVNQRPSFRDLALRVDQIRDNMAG

Sequence of JAK1 kinase (P23458 whole entry): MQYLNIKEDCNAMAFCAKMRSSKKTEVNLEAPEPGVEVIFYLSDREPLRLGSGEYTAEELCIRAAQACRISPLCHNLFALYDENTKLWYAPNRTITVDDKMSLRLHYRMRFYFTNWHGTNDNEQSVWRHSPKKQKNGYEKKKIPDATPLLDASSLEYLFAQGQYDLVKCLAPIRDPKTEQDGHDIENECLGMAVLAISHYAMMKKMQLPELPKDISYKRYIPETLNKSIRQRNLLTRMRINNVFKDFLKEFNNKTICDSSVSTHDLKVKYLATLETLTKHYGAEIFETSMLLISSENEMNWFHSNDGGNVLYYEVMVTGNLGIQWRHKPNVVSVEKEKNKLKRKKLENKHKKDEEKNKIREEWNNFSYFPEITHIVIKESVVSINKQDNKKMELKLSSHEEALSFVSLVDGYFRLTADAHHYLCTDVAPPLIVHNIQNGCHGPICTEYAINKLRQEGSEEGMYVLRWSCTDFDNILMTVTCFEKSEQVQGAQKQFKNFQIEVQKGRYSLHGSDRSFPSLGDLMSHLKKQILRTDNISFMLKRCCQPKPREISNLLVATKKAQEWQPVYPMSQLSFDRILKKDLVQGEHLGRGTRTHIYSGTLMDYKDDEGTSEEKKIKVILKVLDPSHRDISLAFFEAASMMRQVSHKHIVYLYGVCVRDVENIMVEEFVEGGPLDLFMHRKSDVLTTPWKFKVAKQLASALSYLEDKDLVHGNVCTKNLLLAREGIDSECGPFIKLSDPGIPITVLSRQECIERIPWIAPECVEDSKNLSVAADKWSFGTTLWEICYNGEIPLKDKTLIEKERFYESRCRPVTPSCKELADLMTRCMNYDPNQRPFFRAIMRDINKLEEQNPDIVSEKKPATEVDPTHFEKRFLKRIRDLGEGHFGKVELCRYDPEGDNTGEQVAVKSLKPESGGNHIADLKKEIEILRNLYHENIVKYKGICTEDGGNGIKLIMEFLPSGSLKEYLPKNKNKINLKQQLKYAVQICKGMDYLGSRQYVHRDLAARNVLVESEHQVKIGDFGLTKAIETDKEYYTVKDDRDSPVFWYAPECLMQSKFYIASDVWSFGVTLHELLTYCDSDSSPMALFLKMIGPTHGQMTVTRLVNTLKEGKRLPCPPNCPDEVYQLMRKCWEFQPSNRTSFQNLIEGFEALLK

As for `C[C@H](O)C(=O)N1C[C@H]2C[C@H](N(C)c3ncnc4[nH]ccc34)C[C@H]2C1` [Example 17, (S)-2-Hydroxy-1-((3aR,5R,6aS)-5-(methyl(7H-pyrrolo[2,3-d]pyrimidin-4-yl)amino)hexahydrocyclopenta[c]pyrrol-2(1H)-yl)propan-1-one], the IC50 on JAK1 kinase turned out to be 0.2 nM. The Vd/F in series [1] (read-out: Apparent Distribution Volume Vz/F) is 6.2 ± 1.69 L/kg. Also, the AUC in series [1] (read-out: Area Under Curve AUC) came out at 4760 ± 1680 ng·h/mL. Further, the CL/F in series [1] (read-out: Clearance CL/F) was 38.7 ± 13.7 mL/min/kg. The half-life in series [1] (read-out: Half-Life t½ (converted)) was 2.03 ± 0.82 h. Further, the maximum concentration (Cmax) in series [1] (read-out: Plasma Conc. Cmax) was found to be 1480 ± 177 ng/mL.

Take `COC(=O)CN1C[C@H]2C[C@H](N(C)c3ncnc4[nH]ccc34)C[C@H]2C1` [Example 24, methyl 2-((3aR,5S,6aS)-5-(methyl(7H-pyrrolo[2,3-d]pyrimidin-4-yl)amino)hexahydrocyclopenta[c]pyrrol-2(1H)-yl)acetate]: the IC50 at JAK2 kinase amounted to 77 nM; at JAK1 kinase, 13 nM.

With `COC(=O)N1CC[C@H]2CC(N(C)c3ncnc4[nH]ccc34)C[C@H]2C1` (stereo partly drawn) [Example 36, (4aS,7aR)-Methyl 6-(methyl(7H-pyrrolo[2,3-d]pyrimidin-4-yl)amino) hexahydro-1H-cyclopenta[c]pyridine-2(3H)-carboxylate], the IC50 was found to be 75 nM on JAK2 kinase and 25 nM at JAK1 kinase.

As for `CN(c1ncnc2[nH]ccc12)C1C[C@@H]2CCN(C(=O)CO)C[C@@H]2C1` (stereo partly drawn) [Example 37, 2-Hydroxy-1-((4aS,7aR)-6-(methyl(7H-pyrrolo[2,3-d]pyrimidin-4-yl)amino)hexahydro-1H-cyclopenta[c]pyridin-2(3H,4H,4aH,5H,6H,7H,7aH)-yl)ethanone], the IC50 on JAK2 kinase was 72 nM; on JAK1 kinase it was 50 nM.

As for `COc1nsc(NC(=O)N2CC[C@H]3CC(N(C)c4ncnc5[nH]ccc45)C[C@H]3C2)n1` (stereo partly drawn) [Example 38, (4aS,7aR)—N-(3-Methoxy-1,2,4-thiadiazol-5-yl)-6-(methyl(7H-pyrrolo[2,3-d]pyrimidin-4-yl)amino)hexahydro-1H-cyclopenta[c]pyridine-2(3H)-carboxamide], the IC50 on JAK2 kinase came out at 7 nM.

In the case of `CN(c1ncnc2[nH]ccc12)C1C[C@@H]2CCN(C(=O)CC#N)C[C@@H]2C1` (stereo partly drawn) [Example 39, 3-((4aS,7aR)-6-(Methyl(7H-pyrrolo[2,3-d]pyrimidin-4-yl)amino)hexahydro-1H-cyclopenta[c]pyridin-2(3H,4H,4aH,5H,6H,7H,7aH)-yl)-3-oxopropanenitrile], the IC50 on JAK2 kinase is 113 nM; on JAK1 kinase it was 34 nM.

In the case of `Cc1nsc(N2C[C@H]3C[C@H](N(C)c4ncnc5[nH]ccc45)C[C@H]3C2)n1` [Example 65, N-methyl-N-((3aR,5S,6aS)-2-(3-methyl-1,2,4-thiadiazol-5-yl)octahydrocyclopenta[c]pyrrol-5-yl)-7H-pyrrolo[2,3-d]pyrimidin-4-amine], the IC50 on JAK2 kinase was determined as 179 nM.

Regarding `CC(C#N)C(=O)N1C[C@H]2C[C@H](N(C)c3ncnc4[nH]ccc34)C[C@H]2C1` (stereo partly drawn) [Example 82, 2-methyl-3-((3aR,5S,6aS)-5-(methyl(7H-pyrrolo[2,3-d]pyrimidin-4-yl)amino)hexahydrocyclopenta[c]pyrrol-2(1H)-yl)-3-oxopropanenitrile], the IC50 at JAK1 kinase was determined as 49 nM.

For `CN(c1ncnc2[nH]ccc12)[C@H]1C[C@@H]2CN(C(=O)C(C)(C)O)C[C@@H]2C1` [Example 83, 2-hydroxy-2-methyl-1-((3aR,5S,6aS)-5-(methyl(7H-pyrrolo[2,3-d]pyrimidin-4-yl)amino)hexahydrocyclopenta[c]pyrrol-2(1H)-yl)propan-1-one], the IC50 at JAK1 kinase came to 50 nM.

Consider `CN(c1ncnc2[nH]ccc12)[C@H]1C[C@@H]2CN(C(=O)Cc3nn[nH]n3)C[C@@H]2C1` [Example 85, 1-((3aR,5S,6aS)-5-(methyl(7H-pyrrolo[2,3-d]pyrimidin-4-yl)amino)hexahydrocyclopenta[c]pyrrol-2(1H)-yl)-2-(2H-tetrazol-5-yl)ethanone], for which, on JAK1 kinase, the IC50 stood at 80 nM.

`CC[C@H](O)C(=O)N1C[C@H]2C[C@H](N(C)c3ncnc4[nH]ccc34)C[C@H]2C1` [Example 93, (S)-2-hydroxy-1-((3aR,5R,6aS)-5-(methyl(7H-pyrrolo[2,3-d]pyrimidin-4-yl)amino)hexahydrocyclopenta[c]pyrrol-2(1H)-yl)butan-1-one]: the IC50 on JAK1 kinase is 70 nM.

Take `CN(c1ncnc2[nH]ccc12)[C@H]1C[C@@H]2CN(C(=O)Nc3ccn(C)n3)C[C@@H]2C1` [Example 104, (3aR,5S,6aS)-5-(methyl(7H-pyrrolo[2,3-d]pyrimidin-4-yl)amino)-N-(1-methyl-1H-pyrazol-3-yl)hexahydrocyclopenta[c]pyrrole-2(1H)-carboxamide]: on JAK1 kinase, the IC50 worked out at 109 nM.

With `COc1cncc(NC(=O)N2C[C@H]3C[C@H](N(C)c4ncnc5[nH]ccc45)C[C@H]3C2)c1` [Example 109, (3aR,5S,6aS)-N-(5-methoxypyridin-3-yl)-5-(methyl(7H-pyrrolo[2,3-d]pyrimidin-4-yl)amino)hexahydrocyclopenta[c]pyrrole-2(1H)-carboxamide], the IC50 at JAK1 kinase was 15 nM.

`Cc1cnc(NC(=O)N2C[C@H]3C[C@H](N(C)c4ncnc5[nH]ccc45)C[C@H]3C2)s1` [Example 117, (3aR,5S,6aS)-5-(methyl(7H-pyrrolo[2,3-d]pyrimidin-4-yl)amino)-N-(5-methylthiazol-2-yl)hexahydrocyclopenta[c]pyrrole-2(1H)-carboxamide]: at JAK1 kinase, the IC50 turned out to be 95 nM.

Turning to `Cc1cc(NC(=O)N2C[C@H]3C[C@H](N(C)c4ncnc5[nH]ccc45)C[C@H]3C2)sn1` [Example 119, (3aR,5S,6aS)-5-(methyl(7H-pyrrolo[2,3-d]pyrimidin-4-yl)amino)-N-(3-methylisothiazol-5-yl)hexahydrocyclopenta[c]pyrrole-2(1H)-carboxamide], the IC50 on JAK1 kinase was 48 nM.

As for `Cc1ncc(NC(=O)N2C[C@H]3C[C@H](N(C)c4ncnc5[nH]ccc45)C[C@H]3C2)s1` [Example 124, (3aR,5S,6aS)-5-(methyl(7H-pyrrolo[2,3-d]pyrimidin-4-yl)amino)-N-(2-methylthiazol-5-yl)hexahydrocyclopenta[c]pyrrole-2(1H)-carboxamide], the IC50 on JAK1 kinase is 119 nM.

For the molecule `COC(=O)CN1C[C@@H]2[C@H](C1)[C@H]2CN(C)c1ncnc2[nH]ccc12` [Example 134, methyl 2-((1R,5S,6R)-6-((methyl(7H-pyrrolo[2,3-d]pyrimidin-4-yl)amino)methyl)-3-azabicyclo[3.1.0]hexan-3-yl)acetate], on JAK2 kinase, the IC50 amounted to 60 nM.

As for `CN(C[C@H]1[C@@H]2CN(C(=O)C3CC3)C[C@@H]21)c1ncnc2[nH]ccc12` [Example 135, cyclopropyl((1R,5S,6S)-6-((methyl(7H-pyrrolo[2,3-d]pyrimidin-4-yl)amino)methyl)-3-azabicyclo[3.1.0]hexan-3-yl)methanone], the IC50 on JAK2 kinase was 2 nM.

Take `CN(c1ncnc2[nH]ccc12)[C@H]1C[C@@H]2CN(C(=O)Nc3nc(O)ns3)C[C@@H]2C1` [Example 156, (3aR,5S,6aS)-N-(3-hydroxy-1,2,4-thiadiazol-5-yl)-5-(methyl(7H-pyrrolo[2,3-d]pyrimidin-4-yl)amino)hexahydrocyclopenta[c]pyrrole-2(1H)-carboxamide]: on JAK1 kinase, the IC50 stood at 171 nM.

The values above are taken from patent US9527851B2, “Pyrrole six-membered heteroaryl ring derivative, preparation method thereof, and medicinal uses thereof” (Jiangsu Hengrui Medicine Co., Ltd., priority 2011, dated 2016).
